System: high fat diet (HFD) rabbit model of metabolic-associated steatohepatitis (MASH)
Experiment: HFD rabbit study, prolonged 4-week treatment: fibrosis and inflammation markers mRNA expression
Assay type: in vivo, New Zealand White rabbits
Conditions: HFD rabbits, weeks 9–12, mean±SD, n=7
Description: After 1 week (W) of RD, the animals (n = 44) were randomly assigned to the following groups (Table 1B): • Control rabbits continued to receive a RD for 12 weeks and were treated with vehicle for 5 days a week (days 1–5, p.o.) during the last 4 weeks before culling (RD + 4W Veh group); • Rabbits received a HFD for 8 weeks and were culled (HFD 8W group); • Rabbits received a HFD for 12 weeks and were treated with vehicle for 5 days a week (days 1–5, p.o.) during the last 4 weeks before culling (HFD+4W Veh group); • Rabbits received a HFD for 12 weeks and were treated with GB1211 (0.3 mg/kg) for 5 days a week (days 1–5, p.o.) during the last 4 weeks before culling (HFD + 4W 0.3 mg group); • Rabbits received a HFD for 12 weeks and were treated with GB1211 (1.0 mg/kg) for 5 days a week (days 1–5, p.o.) during the last 4 weeks before culling (HFD + 4W 1.0 mg group); • Rabbits received a HFD for 12 weeks and were treated with GB1211 (5.0 mg/kg) for 5 days a week (days 1–5, p.o.) during the last 4 weeks before culling (HFD + 4W 5.0 mg group).
TRIzol reagent (Life Technologies, Paisley, United Kingdom) and/or RNeasy Mini Kit (Qiagen, Hilden, Germany) were used to isolate total RNA from rabbit liver specimens. RNA concentration and quality were measured using a Nanodrop ND-1000 (Thermo Fisher Scientific) at 260 nm and 280 nm. The OD 260/280 absorbance ratios were between 2.0 and 2.1 for all samples, to confirm RNA integrity and purification. cDNA synthesis was carried out using the iScript™ cDNA Synthesis Kit (Bio-Rad Laboratories, Hercules, CA), with 100 ng of mRNA in 20 µL reaction volume in accordance with the following protocol: 5 min at 25°C, 20 min at 46°C and 5 min at 85°C, followed by refrigeration at 4°C.
Semi-quantitative real-time RT-PCR (qRT-PCR) amplification and detection was performed with SsoAdvanced™ universal SYBR® Supermix and a CFX96 Two-Color Real-Time PCR Detection System (both Bio-Rad Laboratories) with the following thermal cycler conditions: 40 cycles at 95°C for 15 s and 60°C for 1 min. Specific PCR primers for rabbit target genes were designed on sequences available at the National Center for Biotechnology Information GenBank (http://www.ncbi.nlm.nih.gov) or Ensemble Genome (http://www.ensembl.org).
The 18S ribosomal RNA subunit was quantified with a predeveloped assay (Hs99999901_s1, Life Technologies) and used as the housekeeping gene for the relative quantitation of the target genes based on the comparative threshold cycle (Ct) 2^−ΔΔCt method ([Livak and Schmittgen, 2001]), with some modifications. In detail, we used the vehicle control groups as the calibrator in each analysis, so that the calculations would provide the fold-change of the other groups relative to controls.

Structure (SMILES): OC[C@H]1O[C@H](Sc2cncc(Br)c2)[C@H](O)[C@@H](n2cc(-c3cc(F)c(F)c(F)c3)nn2)[C@H]1O [selvigaltin]
- CD4 liver mRNA expression (0.3 mg/kg p.o.): 1.96 ± 0.51 fold-change vs. RD+Veh
- COL1A1 liver mRNA expression (0.3 mg/kg p.o.): 45.14 ± 43.26 fold-change vs. RD+Veh
- COL3A1 liver mRNA expression (0.3 mg/kg p.o.): 12.38 ± 9.89 fold-change vs. RD+Veh
- COX-2 liver mRNA expression (0.3 mg/kg p.o.): 8.60 ± 4.94 fold-change vs. RD+Veh
- EDN1 liver mRNA expression (0.3 mg/kg p.o.): 1.08 ± 0.33 fold-change vs. RD+Veh
- EDNRA liver mRNA expression (0.3 mg/kg p.o.): 3.66 ± 2.05 fold-change vs. RD+Veh
- EDNRB liver mRNA expression (0.3 mg/kg p.o.): 1.60 ± 0.42 fold-change vs. RD+Veh
- FN1 liver mRNA expression (0.3 mg/kg p.o.): 1.79 ± 0.76 fold-change vs. RD+Veh
- FOXP3 liver mRNA expression (0.3 mg/kg p.o.): 2.85 ± 1.40 fold-change vs. RD+Veh
- IL1β liver mRNA expression (0.3 mg/kg p.o.): 1.33 ± 0.37 fold-change vs. RD+Veh
- IL2 liver mRNA expression (0.3 mg/kg p.o.): 2.98 ± 1.16 fold-change vs. RD+Veh
- IL6 liver mRNA expression (0.3 mg/kg p.o.): 2.43 ± 1.89 fold-change vs. RD+Veh
- LGALS3 liver mRNA expression (0.3 mg/kg p.o.): 63.90 ± 24.46 fold-change vs. RD+Veh
- MCP1 liver mRNA expression (0.3 mg/kg p.o.): 7.70 ± 6.93 fold-change vs. RD+Veh
- PAI-1 liver mRNA expression (0.3 mg/kg p.o.): 4.91 ± 1.83 fold-change vs. RD+Veh
- RAGE liver mRNA expression (0.3 mg/kg p.o.): 1.99 ± 1.10 fold-change vs. RD+Veh
- SNAI1 liver mRNA expression (0.3 mg/kg p.o.): 2.05 ± 2.05 fold-change vs. RD+Veh
- SNAI2 liver mRNA expression (0.3 mg/kg p.o.): 2.28 ± 1.03 fold-change vs. RD+Veh
- TGFβ1 liver mRNA expression (0.3 mg/kg p.o.): 4.06 ± 1.62 fold-change vs. RD+Veh
- TGFβ3 liver mRNA expression (0.3 mg/kg p.o.): 1.73 ± 0.80 fold-change vs. RD+Veh
- TLR4 liver mRNA expression (0.3 mg/kg p.o.): 3.89 ± 1.45 fold-change vs. RD+Veh
- TNFα liver mRNA expression (0.3 mg/kg p.o.): 4.39 ± 0.96 fold-change vs. RD+Veh
- αSMA liver mRNA expression (0.3 mg/kg p.o.): 4.64 ± 4.05 fold-change vs. RD+Veh
- CD4 liver mRNA expression (1.0 mg/kg p.o.): 1.33 ± 0.66 fold-change vs. RD+Veh
- COL1A1 liver mRNA expression (1.0 mg/kg p.o.): 9.00 ± 6.03 fold-change vs. RD+Veh
- COL3A1 liver mRNA expression (1.0 mg/kg p.o.): 3.49 ± 2.11 fold-change vs. RD+Veh
- COX-2 liver mRNA expression (1.0 mg/kg p.o.): 6.14 ± 3.84 fold-change vs. RD+Veh
- EDN1 liver mRNA expression (1.0 mg/kg p.o.): 0.99 ± 0.28 fold-change vs. RD+Veh
- EDNRA liver mRNA expression (1.0 mg/kg p.o.): 2.13 ± 1.20 fold-change vs. RD+Veh
- EDNRB liver mRNA expression (1.0 mg/kg p.o.): 1.58 ± 0.31 fold-change vs. RD+Veh
- FN1 liver mRNA expression (1.0 mg/kg p.o.): 1.06 ± 0.22 fold-change vs. RD+Veh
- FOXP3 liver mRNA expression (1.0 mg/kg p.o.): 1.39 ± 0.43 fold-change vs. RD+Veh
- IL1β liver mRNA expression (1.0 mg/kg p.o.): 1.18 ± 0.45 fold-change vs. RD+Veh
- IL2 liver mRNA expression (1.0 mg/kg p.o.): 1.85 ± 1.16 fold-change vs. RD+Veh
- IL6 liver mRNA expression (1.0 mg/kg p.o.): 0.58 ± 0.22 fold-change vs. RD+Veh
- LGALS3 liver mRNA expression (1.0 mg/kg p.o.): 50.04 ± 15.84 fold-change vs. RD+Veh
- MCP1 liver mRNA expression (1.0 mg/kg p.o.): 4.23 ± 1.50 fold-change vs. RD+Veh
- PAI-1 liver mRNA expression (1.0 mg/kg p.o.): 4.93 ± 2.25 fold-change vs. RD+Veh
- RAGE liver mRNA expression (1.0 mg/kg p.o.): 1.14 ± 0.36 fold-change vs. RD+Veh
- SNAI1 liver mRNA expression (1.0 mg/kg p.o.): 1.30 ± 1.21 fold-change vs. RD+Veh
- SNAI2 liver mRNA expression (1.0 mg/kg p.o.): 1.15 ± 0.42 fold-change vs. RD+Veh
- TGFβ1 liver mRNA expression (1.0 mg/kg p.o.): 2.87 ± 1.14 fold-change vs. RD+Veh
- TGFβ3 liver mRNA expression (1.0 mg/kg p.o.): 1.20 ± 0.54 fold-change vs. RD+Veh
- TLR4 liver mRNA expression (1.0 mg/kg p.o.): 3.63 ± 0.90 fold-change vs. RD+Veh
- TNFα liver mRNA expression (1.0 mg/kg p.o.): 3.67 ± 2.21 fold-change vs. RD+Veh
- αSMA liver mRNA expression (1.0 mg/kg p.o.): 1.75 ± 1.34 fold-change vs. RD+Veh
- CD4 liver mRNA expression (5.0 mg/kg p.o.): 2.60 ± 1.97 fold-change vs. RD+Veh
- COL1A1 liver mRNA expression (5.0 mg/kg p.o.): 25.20 ± 23.86 fold-change vs. RD+Veh
- COL3A1 liver mRNA expression (5.0 mg/kg p.o.): 7.26 ± 6.59 fold-change vs. RD+Veh
- COX-2 liver mRNA expression (5.0 mg/kg p.o.): 13.87 ± 22.12 fold-change vs. RD+Veh
- EDN1 liver mRNA expression (5.0 mg/kg p.o.): 1.09 ± 0.51 fold-change vs. RD+Veh
- EDNRA liver mRNA expression (5.0 mg/kg p.o.): 3.04 ± 2.38 fold-change vs. RD+Veh
- EDNRB liver mRNA expression (5.0 mg/kg p.o.): 2.49 ± 2.19 fold-change vs. RD+Veh
- FN1 liver mRNA expression (5.0 mg/kg p.o.): 1.51 ± 0.74 fold-change vs. RD+Veh
- FOXP3 liver mRNA expression (5.0 mg/kg p.o.): 3.57 ± 1.87 fold-change vs. RD+Veh
- IL1β liver mRNA expression (5.0 mg/kg p.o.): 1.32 ± 0.62 fold-change vs. RD+Veh
- IL2 liver mRNA expression (5.0 mg/kg p.o.): 3.33 ± 2.66 fold-change vs. RD+Veh
- IL6 liver mRNA expression (5.0 mg/kg p.o.): 1.59 ± 1.33 fold-change vs. RD+Veh
- LGALS3 liver mRNA expression (5.0 mg/kg p.o.): 67.63 ± 53.87 fold-change vs. RD+Veh
- MCP1 liver mRNA expression (5.0 mg/kg p.o.): 5.47 ± 2.52 fold-change vs. RD+Veh
- PAI-1 liver mRNA expression (5.0 mg/kg p.o.): 5.06 ± 3.07 fold-change vs. RD+Veh
- RAGE liver mRNA expression (5.0 mg/kg p.o.): 1.73 ± 0.67 fold-change vs. RD+Veh
- SNAI1 liver mRNA expression (5.0 mg/kg p.o.): 2.32 ± 1.38 fold-change vs. RD+Veh
- SNAI2 liver mRNA expression (5.0 mg/kg p.o.): 1.68 ± 0.79 fold-change vs. RD+Veh
- TGFβ1 liver mRNA expression (5.0 mg/kg p.o.): 3.96 ± 2.80 fold-change vs. RD+Veh
- TGFβ3 liver mRNA expression (5.0 mg/kg p.o.): 1.87 ± 0.71 fold-change vs. RD+Veh
- TLR4 liver mRNA expression (5.0 mg/kg p.o.): 3.90 ± 1.30 fold-change vs. RD+Veh
- TNFα liver mRNA expression (5.0 mg/kg p.o.): 3.80 ± 1.84 fold-change vs. RD+Veh
- αSMA liver mRNA expression (5.0 mg/kg p.o.): 3.17 ± 2.57 fold-change vs. RD+Veh

Source: paper PMC11322497 (Frontiers in Pharmacology, 2024)
